# Where a SMILES comes first, the peptide text is derived from it. The star is where a group is joined. Cbz = O=C(OCc1ccccc1)*; OtBu = CC(C)(C)O*
# What was measured:
# calvaria of normal mice = assay: In vivo assay of effects on murine calvarial bone growth; parameters: species or system ICR Swiss white mice; conditions: for % Increase in Bone Area Compared with Control: p < 0.05; for % Increase in New Bone Width: p < 0.001
# Description: Male ICR Swiss white mice, aged 4-6 weeks and weighing 13-26 gm, are employed, using 4-5 mice per group. The calvarial bone growth assay is performed as described in PCT application WO95/24211, incorporated by reference. Briefly, the test compound or appropriate control vehicle is injected into the subcutaneous tissue over the right calvaria of normal mice. Typically, the control vehicle is the vehicle in which the compound was solubilized, and is PBS containing 5% DMSO or is PBS containing Tween (2 μl/10 ml). The animals are sacrificed on day 14 and bone growth measured by histomorphometry. Bone samples for quantitation are cleaned from adjacent tissues and fixed in 10% buffered formalin for 24-48 hours, decalcified in 14% EDTA for 1-3 weeks, processed through graded alcohols; and embedded in paraffin wax. Three to five μm sections of the calvaria are prepared, and representative sections are selected for histomorphometric assessment of the effects on bone formation and bone resorption. Sections are measured by using a camera lucida attachment to trace directly the microscopic image onto a digitizing plate. Bone changes are measured on sections cut 200 μm apart, over 4 adjacent 1×1 mm fields on both the injected and noninjected sides of the calvaria. New bone is identified by its characteristic woven structure, and osteoclasts and osteoblasts are identified by their distinctive morphology. Histomorphometry software (OsteoMeasure, Osteometrix, Inc., Atlanta) is used to process digitizer input to determine cell counts and measure areas or perimeters.
# Typical treatment regimens for testing utilize application of the compound to be tested over several days of repeated administration.
# PSI and MG-132 were assayed in vivo according to the procedure described previously (see “In vivo Assay of Effects of Compounds on Murine Calvarial Bone Growth”, supra). As a control, simvastatin provided a 1.5 fold increase in the number of osteoblasts.
# In one experiment, vehicle control, bFGF and varying doses of PSI were tested in the in vivo calvarial bone growth assay. The results are reported as a measurement of total bone area, % increase in area over vehicle control, and % increase in new bone width as shown below.
# proteasomal activity = conditions: cited from earlier work
# hair follicles [1] = assay: Effects on subcutaneous tissue of the scalp (Example 10); format: in vivo, ICR mice; conditions: 1 mg/kg body weight/day injected daily for 5 days; examined 16 days later
# Description: Effects of PS1 on subcutaneous tissue of the scalp of 6-weeks old ICR mice from longitudinal and transverse sections were determined. PS1 dissolved in 50% propylene glycol, 10% DMSO, and 40% distilled water was injected daily for 5 days (1 mg/kg body weight/day) into the subcutaneous tissue, and the tissue examined histologically 16 days later.
# hair follicles [2] = assay: Topical administration of PSI, hair growth (Examples 13 and 14); format: in vivo, mice
# Description: PSI was prepared as a topical formulation, where the vehicle was 50% propylene glycol, 30% ethanol, 20% deionized water, at 0.1% concentration of PSI. The solution was applied 3 times a day for 5 days. The mice in a treated group were observed as compared to controls similarly treated with vehicle alone.
# When the protocol above was repeated using a 0.5% solution of PSI in groups containing 5 mice each, the number of hairs per 0.8 mm^2 was 60 in the treated mice versus about 10 in the control group. The percentage of follicle area in a region of about 0.8 mm was about 30% as an average in the treated group as compared to 15% as an average in the control group.
# In order to determine the minimal effective dosage of PSI, when used topically, a dose response curve for PSI was prepared. All experiments were preformed according to current good laboratory practice regulations (21CFR58). The mice were divided into 7 groups, 10 mice each, wherein one group was control treated only with vehicle and groups 1-6 with a series of increasing concentrations of PSI in a vehicle comprising 50% propylene glycol, 30% ethanol, 20% deionized water. The concentrations were 0.006%, 0.012%, 0.025%, 0.05%, 0.11% and 0.5%.
# The mice were anesthetized (50 μl Mouse Cocktail containing 3 ml ketamine, 2 ml small animal rompum, 5 ml NaCl), identified by ear punch code, weighed and the hair on the dorsal side removed by waxing as described in Example 6. After waxing, the animals were photographed. On the following day (day 1), 100 μl of PSI at the above concentrations in vehicle was brushed onto the area of removed hair. A similar application of PSI solution was performed daily for an additional 4 days.
# On Day 7 mice were anesthetized and a biopsy of the dorsal treatment area taken using a 6 mm dermal punch; the specimens were fixed in 10% buffered formalin and embedded in paraffin wax. Sections were cut using a standard microtome.
# Mice were monitored daily for signs of hair growth, and any hair growth was recorded by photography. On day 21 animals were euthanized (75 mg/kg body weight phenobarbital, IP injection), 2 cm hair samples were taken for optical based fiber analysis, and the remaining dorsal treatment area was fixed in 10% buffered formalin for further histological analysis. Analysis included quantification of hair thickness and quantification of mature hair follicles. Results were expressed as the mean=+/−the standard error of the mean. Data were analyzed by repeated measures of analysis of variance followed by the Tukey-Kramer post test P values of <0.05 were considered significant.
# hair follicles [3] = assay: Hair growth without depilation, shaved dorsal trunks (Example 15); format: in vivo, C57 BL/6 mice; conditions: for growth of new hair at the site of drug application: sixteenth day
# Description: To confirm that the responses described above occurred in the absence of depilation and in other strains of mice, PS1 (0.5%) was applied topically once daily for 5 days to eight week old male C57 BL/6 mice in which the dorsal trunks were shaved but not depilated. For this experiment, the hair of 18 C57 BL/6 mice was carefully clipped the hair from the dorsal trunks. Three groups were tested. One group was treated with PS1 (0.5%) applied topically to the shaved area daily. In the second group, PS1 (1 mg/kg body weight/day) was injected locally into the subcutaneous tissue of the shaved area. These two groups were compared with the third group, which was untreated other than the hair on the dorsal trunk was similarly clipped. Blonde hair dye (extra strength bleach powder and 12% hydrogen peroxide in a 1 to 1 w/v ratio) was applied to the dorsal trunks of all mice on the seventh day in order to make it easier to detect new hair growth represented by appearance in the blonded areas of the natural black hair of the mice associated with induction of melanogenesis.
# calpain = conditions: cited from earlier work
# chymotrypsin = chymotrypsin (Bos taurus, UniProt P00766); conditions: cited from earlier work
compound,measurement,setting,value
simvastatin,increase in the number of osteoblasts,"calvaria of normal mice; mouse, in vivo",1.5 fold
same,effects on proteasomal activity,proteasomal activity,no effects on proteasomal activity
"CC[C@H](C)[C@H](NC(=O)OCc1ccccc1)C(=O)N[C@@H](CCC(=O)OC(C)(C)C)C(=O)N[C@@H](C)C(=O)N[C@H](C=O)CC(C)C [PSI, N-carbobenzoyl-Ile-Glu-(OtBu)-Ala-Leu-CHO] (Cbz-IE(OtBu)AL-aldehyde)",histological examination of bone growth,calvaria of normal mice; 5 mg/kg/day and 1 mg/kg/day of PSI,confirmation of bone growth
same,Total Bone Area,calvaria of normal mice; PSI 0.1 mg/kg/day,0.74 ± 0.02 mm²
same,% Increase in Bone Area Compared with Control,calvaria of normal mice; PSI 0.1 mg/kg/day,21.7 ± 3.5%
same,Total Bone Area,calvaria of normal mice; PSI 1 mg/kg/day,0.83 ± 0.02 mm²
same,% Increase in New Bone Width,calvaria of normal mice; PSI 1 mg/kg/day,19.9 ± 2.0%
same,% Increase in Bone Area Compared with Control,calvaria of normal mice; PSI 1 mg/kg/day,35.4 ± 3.4%
same,Total Bone Area,calvaria of normal mice; PSI 5 mg/kg/day,0.79 ± 0.03 mm²
same,% Increase in New Bone Width,calvaria of normal mice; PSI 5 mg/kg/day,19.9 ± 4.4%
same,% Increase in Bone Area Compared with Control,calvaria of normal mice; PSI 5 mg/kg/day,32.1 ± 5.6%
same,numbers of hair follicles,hair follicles [1],numbers of hair follicles increased
same,size of the follicle diameter and the root sheath diameter,hair follicles [1],obvious increase in size of the follicle diameter and the root sheath diameter
same,effectiveness on hair growth,hair follicles [2]; 0.1% of PSI applied topically 3 times a day for 5 days (additional experiments),effective
same,thickness of hair and hair shaft,hair follicles [2]; topical,thicken both the hair and the hair shaft
same,percentage of follicle area in a region of about 0.8 mm,"hair follicles [2]; topical 0.5% solution of PSI, average, control 15%",about 30%
same,number of hairs per 0.8 mm^2,"hair follicles [2]; topical 0.5% solution of PSI, control about 10",60
same,hair growth relative to controls,"hair follicles [2]; topical, 0.1% PSI, 3 times a day for 5 days, day 16",stimulation of hair growth relative to the controls
same,minimal effective dose,"hair follicles [2]; topical, applied 1 time a day for 4 days",0.5%
same,growth of new hair at the site of drug application,hair follicles [3]; 1 mg/kg body weight/day injected locally into the subcutaneous tissue,more rapid growth of new hair
same,growth of new hair at the site of drug application,hair follicles [3]; 0.5% applied topically once daily for 5 days,more rapid growth of new hair
same,diameter of the hair and of the inner and outer root sheath,"hair follicles [3]; transverse sections of skin, only in the applied areas",increased both the diameter of the hair and the diameter of the inner and outer root sheath
CC[C@H](C)[C@H](NC(=O)[C@H]([C@@H](C)CC)N(C)C(C)=O)C(=O)N[C@H](C(=O)N[C@@H](CC(C)C)C(=O)[C@@]1(C)CO1)[C@@H](C)O [Epoxomicin],concentration up to which no inhibition appears,calpain,> 50 µM
same,concentration up to which no inhibition appears,chymotrypsin,> 50 µM

# Source: US6838436B1, “Inhibitors of proteasomal activity for stimulating bone growth” (Osteoscreen Inc., priority 1998, dated 2005)
